Results: patent publication EP0651751B1, “FAMILY OF PORPHIN RING SUBSTANCES, METHOD OF OBTAINING THEM FROM CYANOPHYCEAE, AND APPLICATIONS AS COSMETICS AND AS THERAPEUTIC PRODUCTS” (GENERALE DE PREVENTION ET DE LOISIRS, priority 1992, dated 1994)

Key:
[1] = tested on: collagène fibreux insoluble; assay: Increase of the resistance of collagen to collagenase (agarose gel, diameter of hydrolysis zones); type: biochemical; conditions: product in the gel at 0,025 %; collagénase pancréatique 10 mg/ml (3800 U/ml), 15 h at 37°C, Tris pH 8,8
Method: * Accroissement de la résistance du collagène aux effets de la collagénase : - Mise en évidence : On répartit dans quatre boîtes de Pétri de 8 cm de diamètre 20 ml d'une solution à 1 % d'agarose dans du tampon Tris pH 8,8, contenant en suspension 20 mg de collagène fibreux insoluble et 0, 0,1, 0,3 et 0,5 ml d'une solution à 5 % de produit à tester selon les boîtes, soient des concentrations de 0, 0,025 %, 0,075 %, 0,125 %. Comme la plupart des produits à tester ne sont pas solubles dans le tampon, on part d'une solution mère dans du diméthylsulfoxyde (DMSO). Cette répartition se fait à 45°C. Après solidification de l'agarose, on perfore 5 puits de 3 mm de diamètre dans le gel grâce à un emporte-pièce. Dans ces 5 puits, on place 50 µl d'une solution de collagénase pancréatique dans du tampon Tris pH 8,8 à une concentration de 10 mg/ml (3800 U/ml). Les boîtes de Pétri sont incubées 15 heures à 37°C, puis le gel est coloré par une solution à 0,25 % d'acide picrique à 0,25 % pendant 3 min, puis une solution de Rouge Sirius à 0,1 % pendant 5 min. L'excès de coloration est éliminé par lavage à l'eau. - Résultats :
(§1) On évalue l'action enzymatique en mesurant le diamètre des zones d'hydrolyse du collagène fibreux. Le groupe chlorophylle-chlorophyllide est le plus actif, ce qui suggère que la présence de magnésium dans la structure a une grande importance. * Effet d'inhibition de la collagénase : - Mise en évidence : On répartit dans quatre boîtes de Pétri de 8 cm de diamètre 20 ml d'une solution à 1 % d'agarose dans du tampon Tris pH 8,8, contenant en suspension 20 mg de collagène fibreux insoluble. Cette répartition se fait à 45°C. Après solidification de l'agarose, on perfore 5 puits de 3 mm de diamètre dans le gel grâce à un emporte-pièce. Dans ces 5 puits, on place 25 µl d'une solution de collagénase pancréatique dans du tampon Tris pH 8,8 à des concentrations de : 10 mg/ml (3800 U/ml) et 25 µl d'une solution de la substance à tester dans le même tampon à une concentration de 4 %, 3 %, 2 %, 1 % et 0 %. Comme la plupart des produits à doser ne sont pas solubles dans le tampon, on part d'une solution mère dans du diméthylsulfoxyde. Les boîtes de Pétri sont incubées 15 heures à 37°C, puis le gel est coloré par une solution à 0,25 % d'acide picrique à 0,25 % pendant 3 min, puis une solution de Rouge Sirius à 0,1 % pendant 5 min. L'excès de coloration est éliminé par lavage à l'eau. - Résultats : […]

[2] = tested on: fibroblastes humains MRC5; assay: Total protein synthesis by fibroblasts in culture (Coomassie blue, OD 595 nm); type: cell-based; conditions: 100 µl per well, MRC5, 28th passage, medium sampled after 48, 72, 96 and 120 h (time not given); for activation at 50 µg/mL: Homo sapiens, read-out: augmentation de la synthèse protéique par rapport au témoin; for augmentation de la synthèse protéique par rapport au témoin: 50 µg/ml
From the text: Dans ce test, qui est un test relatif à une inhibition enzymatique vraie, puisque le substrat est artificiel et de structure assez éloignée des substrats naturels de l'enzyme, on constate que les molécules les plus actives en tant qu'inhibiteurs, sont celles dépourvues de radical phytile; la présence du magnésium n'apparaît pas comme essentielle, pour cette fonction particulière, d'où l'intérêt de compositions comprenant plusieurs des substances actives définies ci-dessus. * Effet des substances décrites sur la synthèse des protéines totales par des fibroblastes en culture (restructuration) : - Mise en évidence : Une étude de cytotoxicité est réalisée au préalable pour déterminer les concentrations maximales de test des différentes substances concernées. Cellules utilisées : fibroblastes humains MRC5, au 28ème passage. Les cellules sont ensemencées sur une plaque à 96 puits à raison de 2.10^5 cellules par puits environ et mises en culture dans du milieu minimum de Eagle (MEM) additionné de 1 % de glutamine 200 mM, 1 % de solution de vitamines, 100 U/ml de pénicilline, 100 U/ml de streptomycine et 2 % de sérum de veau foetal. La solution à tester est ajoutée à raison de 100 µl par puits, à la concentration de 50 µg/ml. Les cellules sont incubées à 37°C sous 5 % d'atmosphères de CO2. On prélève le milieu de culture après 48, 72, 96 et 120 heures de culture. Les protéines totales synthétisées sont déterminées après coloration des surnageants par le bleu de Coomassie et mesure de la D.O. à 595 nm. L'augmentation de la synthèse protéique est mesurée par rapport au témoin (solvant de la substance à tester). - Résultats : […]

élastase pancréatique = élastase pancréatique (Sus scrofa, UniProt P00772); assay: Pancreatic elastase inhibition on synthetic substrate N succinyl N ala-ala-ala-p nitroanilide; type: biochemical; conditions: 0,5 ml of 0,1 % test solution in DMSO à 50 %, 3 ml total; pH 7,6; OD 410 nm over 3 min
From the text: Dans ce test, les substances les plus performantes sont les mêmes que dans le test précédent (chlorophylle-chlorophyllide); de plus, ces substances présentent un effet de renforcement de la résistance du collagène contre les effets de la collagénase, alors que l'enzyme elle-même est peu atteinte par ces substances. * Inhibition de l'élastase pancréatique : - Mise en évidence : L'activité de l'élastase pancréatique est déterminée sur un substrat synthétique. On constate que les produits décrits ci-dessus ont un effet sur cette enzyme alors que le substrat est un dérivé de peptide de faible poids moléculaire : le N succinyl N ala-ala-ala-p nitroanilide. Solution substrat : solution du substrat ci-dessus à 1 % dans du tampon phosphate pH 7,6. Solution enzymatique : élastase pancréatique à (1000 U/ml) dans le tampon pH 7,6. Solvant DMSO à 50 % dans de l'eau distillée. Solution à tester : substance à tester en solution dans le solvant à 0,1 %. Dans un premier tube à essai (blanc), on place : • 2,2 ml de tampon pH 7,6 • 0,3 ml de solution enzymatique • 0,5 ml de solvant. Dans un deuxième tube à essai (essai), on place : • 1 ml de solution substrat • 1,2 ml de tampon pH 7,6 • 0,3 ml de solution enzymatique • 0,5 ml de solution à tester. Dans un troisième tube à essai, on place : • 1 ml de solution substrat • 1,2 ml de tampon pH 7,6 • 0,3 ml de solution enzymatique • 0,5 ml de solvant. On mesure la D.O. de la solution essai contre la solution blanc à 410 nm. On note la valeur toutes les 30 secondes pendant 3 minutes. On réalise la même mesure pour la solution témoin. L'activité de l'enzyme est définie par la vitesse d'augmentation de D.O. du témoin. L'activité de la solution inhibitrice à tester se définit comme une diminution relative de l'activité de l'enzyme. - Résultats : […]

collagénase pancréatique = assay: Collagenase inhibition (agarose gel diffusion, enzyme and substance together in the well); type: biochemical; conditions: 15 h at 37°C
Method: as §1

[3] = Antiradical effect, chemical method (DPPH, OD 519 nm); conditions: 0,15 ml of 2 % solution in methanol; 25°C, 5 min; pH 7; toluene extraction
Method: Dans ce test, on constate une relative homogénéité des actions des différentes substances, contrairement aux tests précédents; ici, c'est donc la structure commune qui doit jouer le rôle principal dans cette action. - Mise en évidence par la méthode chimique : Réactif : 1,1-diphényl-2-picrylhydrazyle : 2,5 mg dans 100 ml de méthanol. Solvant des substances antiradicalaires : méthanol. Solution antiradicalaire : 2 % dans du méthanol. Ce produit est un radical libre stable pouvant être dégradé par des substances antiradicalaires. On réalise un blanc pour le témoin et un blanc pour l'essai : Blanc témoin : tampon phosphate pH 7 : 1,5 ml méthanol : 3 ml Témoin : solution réactif : 3 ml tampon phosphate pH 7 : 1,5 ml Blanc essai : tampon phosphate pH 7 : 1,35 ml méthanol : 3,15 ml Essai : solution réactif : 3 ml tampon phosphate pH 7 : 1,35 ml solution d'antiradicalaire : 0,15 ml. On agite à 25°C pendant 5 min. Puis on extrait par 4 ml de toluène pendant 30 secondes. On filtre sur un papier séparateur de phases et on lit la D.O. de la solution de toluène à 519 nm contre la solution de toluène obtenue pour le blanc correspondant. On calcule le pourcentage de réactif disparu. - Résultats : […]

[4] = 25 µl substance solution at 1 % with 25 µl collagénase 10 mg/ml in the well
[5] = 25 µl substance solution at 2 % with 25 µl collagénase 10 mg/ml in the well
[6] = 25 µl substance solution at 3 % with 25 µl collagénase 10 mg/ml in the well
[7] = 25 µl substance solution at 4 % with 25 µl collagénase 10 mg/ml in the well

élastase pancréatique, sequence (P00772 27-266): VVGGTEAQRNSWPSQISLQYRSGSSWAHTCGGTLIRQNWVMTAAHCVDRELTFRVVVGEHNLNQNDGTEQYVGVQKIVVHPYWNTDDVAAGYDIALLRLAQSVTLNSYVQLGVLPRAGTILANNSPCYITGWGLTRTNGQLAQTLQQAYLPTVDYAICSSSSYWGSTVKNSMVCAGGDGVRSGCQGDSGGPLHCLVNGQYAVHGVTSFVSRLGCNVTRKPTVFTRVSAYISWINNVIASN

| Accroissement de la résistance du collagène aux effets de la collagénase [1] [%] | Inhibition de l'élastase pancréatique (diminution relative de l'activité de l'enzyme) (élastase pancréatique) [%] | Effet d'inhibition de la collagénase (collagénase pancréatique; [4]) [%] | Effet d'inhibition de la collagénase (collagénase pancréatique; [5]) [%] | Effet d'inhibition de la collagénase (collagénase pancréatique; [6]) [%] | Effet d'inhibition de la collagénase (collagénase pancréatique; [7]) [%] | Compound | activation at 50 µg/mL [2] [%] | pourcentage de réactif disparu (méthode chimique) [3] [%] | augmentation de la synthèse protéique par rapport au témoin [2] [%] |
| --- | --- | --- | --- | --- | --- | --- | --- | --- | --- |
| 2 | 17 | 2 | 2 | 2 | 6 | C=CC1=C(C)c2cc3[nH]c(c(CCC(=O)O)c3C)c3c4nc(cc5[nH]c(cc1n2)c(C)c5CC)C(C)=C4C(=O)C3C(=O)OC (centres unmarked) [Phaéophorbide a, didéhydrophaéophorbide a] | 1 | 33 | – |
| 5 | 12 | 2 | 3 | 3 | 4 | didéhydrochlorophylle a | – | 84 | 15 |
| 0 | 9 | 0 | 0 | 0 | 2 | C=CC1=C(C)c2cc3[nH]c(c(CCC(=O)OCC=C(C)CCCC(C)CCCC(C)CCCC(C)C)c3C)c3c4nc(cc5[nH]c(cc1n2)c(C)c5CC)C(C)=C4C(=O)C3C(=O)OC (centres unmarked) [Phaéophytine a, didéhydrophaéophytine a] | 4 | 20 | – |
| 3 | 28 | 3 | 6 | 8 | 9 | didéhydrochlorophyllide a | – | 83 | 23 |
